These results are taken from patent publication US5364764A, “Fluorescent chloramphenicol derivatives for determination of chloramphenicol acetyltransferase activity” (Molecular Probes, Inc., priority 1992, dated 1994).

Broadly, the Km is the substrate concentration at which the rate is half of its maximum.

The subject of data set [1] is chloramphenicol acetyltransferase (CAT). To be noted: reported by Shaw et al., J. Biol. Chem. 242(4):687 (1967); read-out: Km (Michaelis-Menten constant) for chloramphenicol; cited from earlier work.
The target of data set [2] is T1, purified CAT (chloramphenicol acetyltransferase) (Escherichia coli, UniProt P62577).
T1 construct: the pSV2cat reporter type
Briefly: Procedure for comparing activity of fluorescent substrates (TLC, conversion to acetylated products). In kind it is biochemical. To be noted: 0.8 U purified CAT, acetyl CoA, 1M TRIS pH 7.4, 37° C., 1 hour. The procedure: To a solution of 0.5 mg acetyl CoA in 112 μL of 1M TRIS pH 7.4 was added 7 μL of a solution of 440 μM fluorescent CAT substrate in ethanol. Then 0.8 U of purified CAT in 1 μL of 1 M TRIS (pH 7.4) was added and the solution was incubated at 37° C. for 1 hour. The reaction mixture was extracted with 0.7 mL of ethyl acetate, and the solvent was removed under vacuum. The residue was dissolved in 14 μL of ethyl acetate, spotted on the pre-absorbent area of Whatman LK6 silica-gel TLC plates and developed with 10% methanol in chloroform. A control, run as above but with no enzyme present, was spotted adjacent to each reaction mixture.
Qualitative estimates of substrate activity of each fluorescent derivative were made by examination of the plates for conversion to acetylated products.

The nature of data set [3]: Solubility in aqueous and nonaqueous solvents. Type of data set: physicochemical. As to conditions: compared with the corresponding fluorescein derivative 36.
Data set [4] has as its target T1, purified CAT (chloramphenicol acetyltransferase). Briefly: Relative velocity vs chloramphenicol. In kind it is biochemical. As to conditions: first ten minutes, substrate 33.2 μM, TRIS pH 7.4, 0.4 mg Acetyl CoA, 0.8U purified enzyme. The procedure:
The velocity during the first ten minutes at a substrate concentration of 33.2 μM was determined using Compound 6 and ^14 C chloramphenicol. The reactions were run in 100 μL final volume TRIS pH 7.4 with 0.4 mg of Acetyl CoA and 0.8U of purified enzyme. The concentrations of acetylated products after ten minutes were determined by extraction from the TLC plates and measuring spectrophotometrically, in the case of Compound 6, and by counting radioactivity in the case of ^14 C chloramphenicol. The velocity during the first ten minutes was assumed to be very close to Vmax. The velocity of Compound 6 was 0.66 of the velocity of ^14 C chloramphenicol.

T1 sequence (P62577 whole entry, looked up): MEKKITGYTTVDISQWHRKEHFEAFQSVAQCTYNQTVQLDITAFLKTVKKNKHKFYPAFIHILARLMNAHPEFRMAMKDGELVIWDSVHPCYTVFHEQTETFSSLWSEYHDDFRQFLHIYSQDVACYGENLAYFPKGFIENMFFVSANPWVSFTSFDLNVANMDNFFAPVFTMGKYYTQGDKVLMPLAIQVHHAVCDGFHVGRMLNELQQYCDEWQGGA

In the case of `O=C(N[C@H](CO)[C@H](O)c1ccc([N+](=O)[O-])cc1)C(Cl)Cl` [chloramphenicol], the Km in data set [1] is about 15 µM.

Take `CC(=O)Nc1ccc([C@@H](O)[C@@H](CO)NC(=O)CCCNC(=O)Cc2cc(=O)oc3cc(N(C)C)ccc23)cc1` [Compound 23]: the “Qualitative estimate of substrate activity (reaction velocity, conversion to acetylated products)” value (“Qualitative estimate” below) in data set [2] is recorded as “highest reaction velocities”.

With `CC(=O)Nc1ccc([C@@H](O)[C@@H](CO)NC(=O)CCCNC(=O)CC2=CC(C)=[N+]3C2=Cc2c(C)cc(C)n2[B-]3(F)F)cc1` [Compound 6], in data set [3], the “Solubility in ethyl acetate” value is “much more soluble in ethyl acetate”. Also, in data set [2], the “Qualitative estimate” value is “highest reaction velocities”. In addition, in data set [4], the “Velocity relative to the velocity of 14C chloramphenicol” value is 0.66.

For the compound `CN(C)c1ccc2c(CC(=O)NCCCC(=O)N[C@H](CO)[C@H](O)c3ccc([N+](=O)[O-])cc3)cc(=O)oc2c1` [Compound 21], the “Qualitative estimate” value in data set [2] is “highest reaction velocities”.

With `Nc1ccc([C@@H](O)[C@@H](CO)NC(=O)CCCCCNc2ccc([N+](=O)[O-])c3nonc23)cc1` [Compound 28], the “Qualitative estimate” value in data set [2] is listed as “highest reaction velocities”.
